Experimental data as given in US10772929B2, “Use of peptide compounds in treating acute pancreatitis” (SHENZHEN HIGHTIDE BIOPHARMACEUTICAL, LTD., priority 2017, dated 2020).

Key:
[1] = system: caerulein-induced acute pancreatitis (AP) model; test: Caerulein-induced acute pancreatitis (AP) mouse model; assay type: in vivo, BALB/c mice; conditions: caerulein AP mice; for Pathological score: Area of necrosis / Pathological score: Edema / Pathological score: Hemorrhage / Pathological score: Inflammation: Schmidt's scoring standard; for Edema of the pancreas versus model group (in words): FIG. 12; for Inflammation of the pancreas versus model group (in words): FIG. 13; for Level of amylase versus model control / Level of lipase versus model control: doses of 0.025, 0.25, 2.5 and 25 mg/kg; for Level of amylase versus model control: FIG. 10, P<0.001; for Level of lipase versus model control: FIG. 11, P<0.001
Procedure: Male BALB/c mice, aged 6-8 weeks, were accumulated for more than 7 days. After fasting overnight, 10 animals were randomly selected as normal control. The remaining animals were injected with caerulein 50 μg/kg intraperitoneally every 1 hour for 10 times to induce acute pancreatitis, and they were randomly divided into model control group and peptide 12 treatment groups with the dosage of 0.025, 0.25, 2.5 and 25 mg/kg respectively, there were 10 mice in each group. Mice were given corresponding doses of peptide 12 or normal saline 5 minutes before the fourth injection of caerulein.
The experiment was finished one hour after the 10th injection of caerulein, blood samples were collected for the determination of amylase and lipase levels. Pancreas were weighed and fixed in 10% formalin solution for subsequent pathological analysis.
The pancreatic index was calculated as pancreatic weight/body weight, which reflected the severity of pancreatic edema. The statistical results were shown in FIG. 9, in which ### means P<0.001 compared with the normal control group; ** means P<0.01 compared with the model control group, *** means P<0.001 compared with the model control group. […] It should be noted that in FIG. 10, ### means P<0.001 compared with the normal control group; *** means P<0.001 compared with the model control group; in FIG. 11, ### means P<0.001 compared with the normal control group; *** means P<0.001 compared with the model control group.
The severity of pancreatic injury was assessed by preparing HE slices of pancreas and using Schmidt's scoring standard to evaluate the pathological changes of pancreatic edema, inflammation, hemorrhage and necrosis.

[2] = system: sodium taurocholate-induced severe acute pancreatitis (SAP) rat model; test: Sodium taurocholate-induced severe acute pancreatitis (SAP) rat model; assay type: in vivo; conditions: SAP rats; for Survival Rate: 3-day experiment; for Survival rate of model animals versus model control (in words): all three doses (0.05, 0.25, 1.25 mg/kg); for Pathological score: Area of necrosis / Pathological score: Edema / Pathological score: Hemorrhage / Pathological score: Inflammation: Schmidt's scoring standard 0-4; for Pathological score: Total damage: sum of the four items
From the text: After at least 7 days of accumulation period, 60 female and 70 male Sprague-Dawley (SD) rats were included in the study. Five females and eight males were randomly selected as the control group. Another five females and eight males were randomly selected as the sham group, the abdominal cavity was opened for each of the rats in the sham group, and a cotton swab was used to gently flip the duodenum and pancreas, then the abdominal muscle and skin were sutured after the completion of the operation The remaining animals were assigned to establish the severe acute pancreatitis (SAP) rat model using the method of retrograde injection of sodium taurocholate solution with 35 mg/kg dosage into the biliopancreatic duct. The model animals were randomly divided into 4 groups of 24 rats each (male:female=1:1) on the day after model establishment, which were the model control group (vehicle), and low dose group of peptide 12 (0.05 mg/kg), middle dose group of peptide 12 (0.25 mg/kg) and high dose group of peptide 12 (1.25 mg/kg), peptide 12 was dissolved in saline.
The animals were subcutaneously injected once on the day after the establishment of the model, once on the second day, for a total of 2 consecutive days, and the experimental period was 3 days. During the experiment, the animals were observed by cage, including if there is any animal death or near death, mental state, behavioral activities, fecal characteristics, skin, hair, eyes, ears, nose, abdomen, external genitals, anus, limbs, feet, respiration, etc. At the end of the experiment, all the surviving rats were weighed and blood samples were collected to detect the levels of amylase, calcium and lipase in serum of rats in each group. The general anatomical observation was made, focusing on the status of pancreas, gastrointestinal tract, ascites, bile duct obstruction, pulmonary congestion and saponification spots. The pancreas was preserved in 10% formalin fixative for further pathological analysis.
The severity of pancreatic injury was assessed by preparing HE slices of pancreas and using Schmidt's scoring standard to evaluate the pathological changes of pancreatic edema, inflammation, hemorrhage and necrosis. The total pancreatic injury calculated as the sum of the above four items.

[3] = listed as Ac-IGLHD PSHGT LPAGS-OH

Ac-IGLHDPSHGTLPAGS-OH [Peptide 12]
Pathological score: Area of necrosis ([1]; 0.025 mg/kg): 0.00 ± 0.00
Pathological score: Edema ([1]; 0.025 mg/kg): 1.50 ± 0.84
Pathological score: Hemorrhage ([1]; 0.025 mg/kg): 0.00 ± 0.00
Pathological score: Inflammation ([1]; 0.025 mg/kg): 1.33 ± 0.52
Pathological score: Area of necrosis ([1]; 0.25 mg/kg): 0.00 ± 0.00
Pathological score: Edema ([1]; 0.25 mg/kg): 1.67 ± 0.82
Pathological score: Hemorrhage ([1]; 0.25 mg/kg): 0.00 ± 0.00
Pathological score: Inflammation ([1]; 0.25 mg/kg): 1.17 ± 0.75
Pathological score: Area of necrosis ([1]; 2.5 mg/kg): 0.00 ± 0.00
Pathological score: Edema ([1]; 2.5 mg/kg): 1.17 ± 1.17
Pathological score: Hemorrhage ([1]; 2.5 mg/kg): 0.00 ± 0.00
Pathological score: Inflammation ([1]; 2.5 mg/kg): 0.83 ± 0.75
Pathological score: Area of necrosis ([1]; 25 mg/kg): 0.00 ± 0.00
Pathological score: Edema ([1]; 25 mg/kg): 1.50 ± 0.55
Pathological score: Hemorrhage ([1]; 25 mg/kg): 0.33 ± 0.82
Pathological score: Inflammation ([1]; 25 mg/kg): 2.17 ± 0.75
Edema of the pancreas versus model group (in words) [1, 3]: significantly reduced
Edema of the pancreas versus model group (in words) ([1]; listed as peptide 12): alleviated
Inflammation of the pancreas versus model group (in words) [1, 3]: significantly reduced
Inflammation of the pancreas versus model group (in words) ([1]; listed as peptide 12): alleviated
Level of amylase versus model control [1]: significantly lowered
Level of amylase versus model control [1, 3]: significantly reduced
Level of lipase versus model control [1]: significantly lowered
Level of lipase versus model control [1, 3]: significantly reduced
Pancreatic index (pancreatic weight/body weight) versus model control ([1]; doses of 0.025, 0.25 and 2.5 mg/kg, dose dependent, FIG. 9): significantly decreased
Ratio (treatment group/model group) of survival ([2]; 0.05 mg/kg): 1.11
Survival Rate ([2]; 0.05 mg/kg subcutaneous once daily for 2 days): 41.7%
Ratio (treatment group/model group) of survival ([2]; 0.25 mg/kg): 1.33
Survival Rate ([2]; 0.25 mg/kg subcutaneous once daily for 2 days): 50.0%
Ratio (treatment group/model group) of survival ([2]; 1.25 mg/kg): 1.78
Survival Rate ([2]; 1.25 mg/kg subcutaneous once daily for 2 days, 1.25 mg/kg): 66.7%
Pathological changes of pancreas caused by sodium taurocholate ([2]; FIG. 4 to FIG. 8, dose-dependent): reduce
Survival rate of model animals versus model control (in words) [2, 3]: significantly increase
Survival rate of model animals versus model control (in words) ([2]; listed as peptide 12): improved
Pathological score: Area of necrosis ([2]; high dose (1.25 mg/kg)): 1.13 ± 0.85
Pathological score: Edema ([2]; high dose (1.25 mg/kg)): 1.21 ± 0.96
Pathological score: Hemorrhage ([2]; high dose (1.25 mg/kg)): 1.15 ± 0.83
Pathological score: Inflammation ([2]; high dose (1.25 mg/kg)): 2.67 ± 1.00
Pathological score: Total damage ([2]; high dose (1.25 mg/kg)): 6.15 ± 2.69
Pathological score: Area of necrosis ([2]; low dose (0.05 mg/kg)): 1.63 ± 0.74
Pathological score: Edema ([2]; low dose (0.05 mg/kg)): 1.33 ± 0.86
Pathological score: Hemorrhage ([2]; low dose (0.05 mg/kg)): 1.73 ± 0.89
Pathological score: Inflammation ([2]; low dose (0.05 mg/kg)): 2.90 ± 1.22
Pathological score: Total damage ([2]; low dose (0.05 mg/kg)): 7.60 ± 3.07
Pathological score: Area of necrosis ([2]; middle dose (0.25 mg/kg)): 1.11 ± 0.78
Pathological score: Edema ([2]; middle dose (0.25 mg/kg)): 1.44 ± 0.87
Pathological score: Hemorrhage ([2]; middle dose (0.25 mg/kg)): 1.31 ± 0.87
Pathological score: Inflammation ([2]; middle dose (0.25 mg/kg)): 2.83 ± 0.93
Pathological score: Total damage ([2]; middle dose (0.25 mg/kg)): 6.69 ± 2.53
Mental state and activity state of the surviving animals versus model control ([2]; treatment groups 0.05, 0.25, 1.25 mg/kg): significantly better
General anatomy of surviving animals (pancreas edema and liquefaction, gastrointestinal obstruction, ascites volume, bile duct obstruction, pulmonary congestion, saponification spots) ([2]; treatment groups versus control group): improved with varying degrees
Level of amylase in blood versus model control ([2]; treatment groups, FIG. 2): decreased
Level of lipase in blood versus model control ([2]; treatment groups, FIG. 3): decreased
